The values that follow come from PubChem BioAssay AID328 (DTP/NCI, 2004).

SMILES strings stand for the structures. “And” between values parts separate entries of the source, which are not always exact repeats. Equal entries are not always repeated. Toxic doses and inconclusive results are not listed.

The test system of this experiment is BDF1 mice, P388 leukemia ip, median survival T/C. The experiment is described as follows: NCI In Vivo Anticancer Drug Screen. Data for tumor model P388 Leukemia (intraperitoneal) in B6D2F1 (BDF1) mice. As to conditions: endpoint: median survival time, higher = longer survival. A digest of the protocol:
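Antitumour effect was judged in vivo: survival in drug-treated mice, normalised to that of vehicle-dosed controls, gives the reported T/C.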

[1] abbreviates: dose: 100.0 mg/kg/injection, schedule: Q01DX009 (ip), vehicle: saline with Tween-80.
[2] abbreviates: dose: 100.0 mg/kg/injection, schedule: Q04DX003 (ip), vehicle: saline with Tween-80.
Where [3] appears, read: dose: 200.0 mg/kg/injection, schedule: Q04DX003 (ip), vehicle: saline with Tween-80.
Where [4] appears, read: dose: 400.0 mg/kg/injection, schedule: Q04DX003 (ip), vehicle: saline with Tween-80.
Where [5] appears, read: dose: 50.0 mg/kg/injection, schedule: Q01DX009 (ip), vehicle: saline with Tween-80.
The mark [6] stands for this setting: dose: 25.0 mg/kg/injection, schedule: Q04DX003 (ip), vehicle: saline.
Setting [7] is: dose: 50.0 mg/kg/injection, schedule: Q04DX003 (ip), vehicle: saline.
The mark [8] stands for this setting: dose: 100.0 mg/kg/injection, schedule: Q04DX003 (ip), vehicle: saline.
[9] abbreviates: dose: 100.0 mg/kg/injection, schedule: Q01DX009 (ip), vehicle: Klucel (hydroxypropylcellulose) (HPC).
Setting [10] is: dose: 100.0 mg/kg/injection, schedule: Q04DX003 (ip), vehicle: Klucel (hydroxypropylcellulose) (HPC).
[11] abbreviates: dose: 200.0 mg/kg/injection, schedule: Q01DX009 (ip), vehicle: Klucel (hydroxypropylcellulose) (HPC).
Setting [12] is: dose: 200.0 mg/kg/injection, schedule: Q04DX003 (ip), vehicle: Klucel (hydroxypropylcellulose) (HPC).
Setting [13] is: dose: 400.0 mg/kg/injection, schedule: Q01DX009 (ip), vehicle: Klucel (hydroxypropylcellulose) (HPC).
Where [14] appears, read: dose: 400.0 mg/kg/injection, schedule: Q04DX003 (ip), vehicle: Klucel (hydroxypropylcellulose) (HPC).
Setting [15] is: dose: 25.0 mg/kg/injection, schedule: Q01DX009 (ip), vehicle: saline with Tween-80.
Setting [16] is: dose: 200.0 mg/kg/injection, schedule: Q01DX009 (ip), vehicle: saline with Tween-80.
Setting [17] is: dose: 400.0 mg/kg/injection, schedule: Q01DX009 (ip), vehicle: saline with Tween-80.
The mark [18] stands for this setting: dose: 25.0 mg/kg/injection, schedule: Q01DX009 (ip), vehicle: saline.
[19] abbreviates: dose: 50.0 mg/kg/injection, schedule: Q01DX009 (ip), vehicle: saline.

In the case of `O=Cc1[nH]c(=S)[nH]c(=O)c1Cc1cccc(Cl)c1`, the T/C reads like this: under setting [1], 115 % of control; under setting [2], 113 % of control; under setting [3], 118 % of control; under setting [4], 113 % of control.
Turning to `Cc1cc(N(C)C)c2ccc3c(ccc4c(N(C)C)cc(C)nc43)c2n1`, the T/C under setting [5] was 121 % of control and the T/C under setting [1] was 123 % of control.
On to `COc1cc(/C=N\NC(=O)c2cccc(Cl)c2)ccc1N(CCCl)CCCl`, for which the T/C (dose: 264.0 mg/kg/injection, schedule: Q04DX003 (ip), vehicle: saline with Tween-80) was 173 % of control; the T/C under setting [4] is 234 % of control; the T/C (dose: 600.0 mg/kg/injection, schedule: Q04DX003 (ip), vehicle: saline with Tween-80) was 260 % of control.
In the case of `C=C1C(=O)OCC2C(C(=O)O)=CC3C(C)C(C)=CC123` (configuration not stated), the T/C (dose: 2.5 mg/kg/injection, schedule: Q01DX009 (ip), vehicle: other) was 105 % of control; the T/C (dose: 5.0 mg/kg/injection, schedule: Q04DX003 (ip), vehicle: other) was 117 % of control; the T/C (dose: 10.0 mg/kg/injection, schedule: Q01DX009 (ip), vehicle: Klucel (hydroxypropylcellulose) (HPC)) was 105 % of control and 121 % of control; the T/C (dose: 10.0 mg/kg/injection, schedule: Q04DX003 (ip), vehicle: other) was 111 % of control; the T/C (dose: 20.0 mg/kg/injection, schedule: Q01DX009 (ip), vehicle: Klucel (hydroxypropylcellulose) (HPC)) was 117 % of control and 120 % of control; the T/C (dose: 20.0 mg/kg/injection, schedule: Q04DX003 (ip), vehicle: other) is 124 % of control. The T/C is, setting by setting: (dose: 40.0 mg/kg/injection, schedule: Q01DX009 (ip), vehicle: Klucel (hydroxypropylcellulose) (HPC)) 121 % of control; (dose: 40.0 mg/kg/injection, schedule: Q04DX003 (ip), vehicle: other) 119 % of control.
In the case of `NS(=O)(=O)c1c([N+](=O)[O-])ncn1C1OC(COC(=O)c2ccccc2)C(OC(=O)c2ccccc2)C1OC(=O)c1ccccc1` (configuration not stated), the T/C was 105 % of control under setting [6]; 100 % of control under setting [7]; 121 % of control under setting [8]; 124 % of control (dose: 200.0 mg/kg/injection, schedule: Q04DX003 (ip), vehicle: saline).
With `C=Cc1ccccc1-c1ccccc1C(=O)OC`, the T/C under setting [3] is 87 % of control and the T/C under setting [4] was 105 % of control.
As for `CNc1ccc([N+](=O)[O-])c2no[n+]([O-])c12`, the T/C was 90 % of control (dose: 15.0 mg/kg/injection, schedule: Q01DX009 (ip), vehicle: saline with Tween-80); 93 % of control (dose: 30.0 mg/kg/injection, schedule: Q01DX009 (ip), vehicle: saline with Tween-80); 102 % of control (dose: 60.0 mg/kg/injection, schedule: Q01DX009 (ip), vehicle: saline with Tween-80).
As for `COc1cc2c(cc1OC)C(=O)C(C(=O)c1ccccc1)C2` (configuration not stated), the T/C under setting [9] was 100 % of control; the T/C under setting [10] is 100 % of control; the T/C under setting [11] was 100 % of control; the T/C under setting [12] was 100 % of control; the T/C under setting [13] was 91 % of control; the T/C under setting [14] was 112 % of control.
As to `O=[N+]([O-])c1ccc(N=N/C(Cc2ccccc2)=N\Nc2ccccc2)cc1`, the T/C runs as follows: under setting [9], 100 % of control; under setting [11], 100 % of control.
As to `COC(=O)C1(Cc2ccccc2)CCCC1(C#N)O[Si](C)(C)C` (configuration not stated), the T/C runs as follows: (dose: 12.5 mg/kg/injection, schedule: Q04DX003 (ip), vehicle: saline with Tween-80) 92 % of control; (dose: 25.0 mg/kg/injection, schedule: Q04DX003 (ip), vehicle: saline with Tween-80) 106 % of control; (dose: 50.0 mg/kg/injection, schedule: Q04DX003 (ip), vehicle: saline with Tween-80) 97 % of control.
With `O=C(Cl)C1CC2c3ccccc3C1([N+](=O)[O-])c1ccccc12` (configuration not stated), the T/C is, setting by setting: under setting [10], 104 % of control; under setting [12], 100 % of control; under setting [14], 113 % of control.
Consider `CCOC(=O)NCCc1ccc(OC)c(OC)c1`, for which the T/C under setting [15] was 109 % of control; the T/C under setting [5] is 124 % of control; the T/C under setting [1] was 89 % of control; the T/C under setting [16] was 106 % of control; the T/C under setting [17] is 107 % of control.
On to `C/C(CCCCl)=N/N=C(N)N`, for which the T/C is, setting by setting: (dose: 7.03 mg/kg/injection, schedule: Q01DX001 (ip), vehicle: saline) 104 % of control; (dose: 14.06 mg/kg/injection, schedule: Q01DX001 (ip), vehicle: saline) 100 % of control; (dose: 18.75 mg/kg/injection, schedule: Q01DX009 (ip), vehicle: saline) 115 % of control; (dose: 18.75 mg/kg/injection, schedule: Q04DX003 (ip), vehicle: saline) 109 % of control; (dose: 37.5 mg/kg/injection, schedule: Q01DX009 (ip), vehicle: saline) 115 % of control; (dose: 37.5 mg/kg/injection, schedule: Q04DX003 (ip), vehicle: saline) 100 % of control. The T/C by setting is: under setting [7], 122 % of control; (dose: 75.0 mg/kg/injection, schedule: Q01DX009 (ip), vehicle: saline) 115 % of control; (dose: 75.0 mg/kg/injection, schedule: Q04DX003 (ip), vehicle: saline) 100 % of control.
`Cc1ccc(S(=O)(=O)OCCC2CCCCC2COS(=O)(=O)c2ccc(C)cc2)cc1` (configuration not stated): the T/C is 105 % of control under setting [9], 100 % of control under setting [11] and 110 % of control under setting [13].
As to `Nc1nc(SSc2nc(N)nc3c2ncn3C2CC(O)C(CO)O2)c2ncn(C3CC(O)C(CO)O3)c2n1` (configuration not stated), the T/C (dose: 50.0 mg/kg/injection, schedule: Q01DX009 (ip), vehicle: Klucel (hydroxypropylcellulose) (HPC)) is 150 % of control and the T/C under setting [9] is 100 % of control.
Consider `Cc1cc(C)cc(NC(=O)c2ccccc2N)c1`, for which the T/C by setting is: under setting [1], 95 % of control; under setting [2], 109 % of control; under setting [16], 95 % of control; under setting [3], 90 % of control; under setting [17], 104 % of control; under setting [4], 100 % of control.
In the case of `O=C(CC(c1ccccc1)c1ccccc1)c1ccccc1`, the T/C runs as follows: under setting [9], 108 % of control; under setting [10], 120 % of control; under setting [11], 108 % of control; under setting [12], 110 % of control; under setting [13], 91 % of control; under setting [14], 120 % of control.
As for `CN1CCC2=C(C1)C(N1CCCCC1)CS(=O)(=O)O2` (configuration not stated), the T/C is, setting by setting: (dose: 25.0 mg/kg/injection, schedule: Q04DX002 (ip), vehicle: saline) 93 % of control; (dose: 50.0 mg/kg/injection, schedule: Q04DX002 (ip), vehicle: saline) 97 % of control; (dose: 100.0 mg/kg/injection, schedule: Q04DX002 (ip), vehicle: saline with Tween-80) 93 % of control.
With `O=c1[nH]c2c(ccc3cccnc32)c2c1CCC2`, the T/C is, setting by setting: under setting [2], 92 % of control; under setting [4], 93 % of control.
Consider `COc1ccc(/C=C/[N+](=O)[O-])cc1O`, for which the T/C reads like this: (dose: 6.25 mg/kg/injection, schedule: Q01DX009 (ip), vehicle: saline) 106 % of control; (dose: 12.5 mg/kg/injection, schedule: Q01DX009 (ip), vehicle: saline) 115 % of control and 121 % of control; (dose: 12.5 mg/kg/injection, schedule: Q04DX003 (ip), vehicle: saline) 113 % of control; under setting [18], 111 % of control and 121 % of control; under setting [6], 113 % of control; under setting [19], 95 % of control and 123 % of control. The T/C under setting [7] was 114 % of control and 122 % of control; the T/C under setting [8] was 114 % of control and 122 % of control.
`O=c1nc(Oc2ccccc2)nc2c3ccccc3ccn12`: the T/C is 118 % of control (dose: 12.5 mg/kg/injection, schedule: Q01DX009 (ip), vehicle: saline with Tween-80); 102 % of control under setting [15]; 112 % of control under setting [5]; 114 % of control and 119 % of control under setting [1]; 89 % of control under setting [16].
Consider `NCCCOc1ccc([N+](=O)[O-])cc1Cl`, for which the T/C under setting [18] is 105 % of control; the T/C under setting [19] was 105 % of control; the T/C (dose: 100.0 mg/kg/injection, schedule: Q01DX009 (ip), vehicle: saline) is 104 % of control.
